Where two headings read alike, the source gives them in different places.
Experiments:
[1] = tested on: E. coli BT3/pACYCSP+pTV118N strain; experiment: Growth of E. coli BT3/pACYCSP+pTV118N (vector control) with herbicidal compound; type: cell-based; conditions: Escherichia coli, 18 h, 18 hours culture
Description: (§1) According to the description of Gibson, L. C. D. et al., Proc. Natl. Acad. Sci. USA, 92; p 1941 (1995), the DNA fragment containing bchH gene prepared in Example 1 was digested with the restriction enzymes NdeI and BglII. The resultant DNA fragment was inserted between NdeI restriction site and BamHI restriction site of expression vector pET11a (manufactured by Stratagene) to obtain plasmid pETBCH (FIG. 1). This plasmid pETBCH was introduced into E. coli BL21(DE3) strain competent cells (manufactured by Stratagene) according to the manual attached to the competent cells to obtain E. coli BL21(DE3)/pETBCH strain. The strain was inoculated into 1.5 ml LB liquid culture medium (1% tryptone, 0.5% yeast extract, 0.5% NaCl) containing 100 μg/ml ampicillin in a tube (14×10 mm), and the tube was covered with aluminum foil (hereinafter referred to as dark conditions), cultured with shaking at 37° C. under light of fluorescent lamp (about 8000 lux). When the absorbance at 600 nm of the liquid culture medium became about 0.6, isopropyl β-D-thiogalactopyranoside (IPTG) was added to the liquid culture medium so that the final concentration was 0.4 mM, and the culture was continued for about additional 20 hours. […] In contrast to this, when E. coli BL21(DE3)/pETBCH strain was cultured according to the same manner (with IPTG) except that the tube was not covered with aluminum foil (hereinafter referred to as light conditions), E. coli grew and turned red as above.
Plasmids pTVBCH and pTV118N respectively were introduced into E. coli BT3/pACYCSP strain prepared in Example 3 according to the method described in Hanahan, D. J., Mol. Biol., 166; p 557 (1983). The resultant E. coli were cultured in YPT medium containing 100 μg/ml ampicillin, 15 μg/ml chloramphenicol and 10 μg/ml kanamycin to obtain E. coli BT3/pACYCSP+pTVBCH strain bearing plasmids pACYCSP and pTVBCH, and E. coli BT3/pACYCSP+pTV118N strain bearing plasmids pACYCSP and pTV118N.
(§2) These strains were inoculated into YPT medium containing 10 or 1 ppm of the PPO inhibitory-type herbicidal compound represented by the above Structure 8, 100 μg/ml ampicillin, 15 μg/ml chloramphenicol, 10 μg/ml kanamycin, 10 μg/ml hemin and 50 μg/ml aminolevulinic acid, cultured under dark conditions or light conditions according to the same manner as in Example 2. Then, 18 hours after initiation of culture, the absorbance of the liquid culture medium was measured at 600 nm. By taking the absorbance of the medium without the herbicidal compound as 1, the relative value of the absorbance of the medium containing the herbicidal compound was calculated.
Further, these strains were inoculated into YPT medium containing PPO inhibitory-type herbicidal compounds represented by the above Structures 1, 14, 15, 18-22, 29, 32, 33, 34 and 36, respectively, 100 μg/ml ampicillin, 15 μg/ml chloramphenicol, 10 μg/ml kanamycin, 10 μg/ml hemin and 50 μg/ml aminolevulinic acid, cultured under dark conditions or light conditions similar to the Example 2. Then, 18 hours after initiation of culture, the absorbance of liquid culture medium was measured at 600 nm. By taking the absorbance of the medium without the herbicidal compound as 1, the relative value of the absorbance of the medium containing the herbicidal compound was calculated.
Plasmids pTVGMP and pTV118N prepared in Example 11 were introduced into E. coli BT3/pACYCSP strain prepared in Example 3 respectively according to the method described in Flanahan, D. J., Mol. Biol., 166; p 557 (1983). E. coli BT3/pACYCSP+pTVGMP strain bearing plasmids pACYCSP and pTVGMP, and E. coli BT3/pACYCSP+pTV118N strain bearing plasmids pACYCSP and pTV118N were obtained by culturing the above strains in YPT medium containing 100 μg/ml ampicillin, 15 μg/ml chloramphenicol and 10 μg/ml kanamycin. […]

[2] = tested on: E. coli BT3/pACYCSP+pTVHVF1 strain; experiment: Growth of E. coli BT3/pACYCSP+pTVHVF1 (variant barley ferrochelatase) with herbicidal compound; type: cell-based, Escherichia coli; conditions: 18 hours culture, Table 11
Description: as §1
A plasmid bearing barley ferrochelatase gene was prepared by the method described in Miyamoto. K. et al. Plant Physiol. 105; p 769 (1994). The resultant plasmid was digested with restriction enzymes NspI and EcoRI to obtain the DNA fragment containing the gene encoding barley ferrochelatase whose signal sequence had been deleted (hereinafter referred to as the variant barley ferrochelatase). This DNA fragment was inserted between SphI restriction site and EcoRI restriction site of plasmid pTV119N (manufactured by Takara Shuzo Co., Ltd.) to construct plasmid pTVHVF1 (FIG. 12). […]
as §2, with “These E. coli strains were” for “These strains were”, “represented by Structure 8,” for “represented by the above Structure 8,”, “absorbance of liquid culture” for “absorbance of the liquid culture”

[3] = read-out: Relative absorbance, in the dark, Table 2
[4] = read-out: Relative absorbance, in the dark, Table 7 (Example 12)
[5] = read-out: Relative absorbance, in the dark, Table 9 (Example 17)
[6] = read-out: Relative absorbance, in the dark, Table 11 (Example 20)
[7] = read-out: Relative absorbance, in the dark, Table 13 (Example 23)
[8] = read-out: Relative absorbance, in the dark, Table 14 (Example 27)
[9] = read-out: Relative absorbance, in the light, Table 2
[10] = read-out: Relative absorbance, in the light, Table 7 (Example 12)
[11] = read-out: Relative absorbance, in the light, Table 9 (Example 17)
[12] = read-out: Relative absorbance, in the light, Table 11 (Example 20)
[13] = read-out: Relative absorbance, in the light, Table 13 (Example 23)
[14] = read-out: Relative absorbance, in the light, Table 14 (Example 27)

Compound: C#CCOc1cc(N2C(=O)C3=C(CCCC3)C2=O)c(F)cc1Cl [Structure 8]
- activity at 1 ppm [1, 3]: 77%
- activity at 1 ppm [1, 4]: 91%
- activity at 1 ppm [1, 5]: 91%
- activity at 1 ppm [1, 6]: 91%
- activity at 1 ppm [1, 7]: 91%
- activity at 1 ppm [1, 8]: 98%
- activity at 1 ppm ([1]; read-out: Relative absorbance, in the dark, Table 15 (Example 31)): 93%
- activity at 1 ppm ([1]; read-out: Relative absorbance, in the dark, Table 16 (Example 31)): 81%
- activity at 10 ppm [1, 3]: 68%
- activity at 10 ppm [1, 4]: 89%
- activity at 10 ppm [1, 5]: 80%
- activity at 10 ppm [1, 6]: 80%
- activity at 10 ppm [1, 7]: 81%
- activity at 10 ppm [1, 8]: 96%
- activity at 1 ppm [1, 9]: 31%
- activity at 1 ppm [1, 10]: 9%
- activity at 1 ppm [1, 11]: 24%
- activity at 1 ppm [1, 12]: 24%
- activity at 1 ppm [1, 13]: 8%
- activity at 1 ppm [1, 14]: 16%
- activity at 1 ppm ([1]; read-out: Relative absorbance, in the light, Table 15 (Example 31)): 7%
- activity at 1 ppm ([1]; read-out: Relative absorbance, in the light, Table 16 (Example 31)): 15%
- activity at 10 ppm [1, 9]: 18%
- activity at 10 ppm [1, 10]: 5%
- activity at 10 ppm [1, 11]: 12%
- activity at 10 ppm [1, 12]: 12%
- activity at 10 ppm [1, 13]: 6%
- activity at 10 ppm [1, 14]: 6%
- Relative absorbance ([2]; in the dark, 1 ppm): 0.96
- Relative absorbance ([2]; in the dark, 10 ppm): 0.94
- Relative absorbance ([2]; in the light, 1 ppm): 0.94
- Relative absorbance ([2]; in the light, 10 ppm): 0.39

Source: US7973219B2, “Method for producing transgenic plants resistant to weed control compounds which disrupt the porphyrin pathways of plants” (Sumitomo Chemical Company, Limited, priority 1998, dated 2011)
